Source: US20230002373A1, “COMPOUNDS AND COMPOSITIONS FOR TREATING CONDITIONS ASSOCIATED WITH STING ACTIVITY” (IFM Due, Inc., priority 2019, published 2023)

Molecular target: T1, hSTING (Homo sapiens, UniProt Q86WV6, G230A/H232R/R293Q/R71H)
T1 construct: host or cells: THP1-Dual KO-IFNAR2 cells
Test: STING reporter assay (luciferase) in THP1-Dual KO-IFNAR2 cells stimulated with 2′3′cGAMP
Type: cell-based
Conditions: 15 μM 2′3′cGAMP, 24 h
Experimental: STING pathway activation by the compounds described herein was measured using THP1-Dual™ cells (KO-IFNAR2).
THP1-Dual™ KO-IFNAR2 Cells (obtained from invivogen) were maintained in RPMI, 10% FCS, 5 ml P/S, 2 mM L-glut, 10 mM Hepes, and 1 mM sodium pyruvate. Compounds were spotted in empty 384 well tissue culture plates (Greiner 781182) by Echo for a final concentration of 0.0017-100 μM. Cells were plated into the TC plates […], 2×10E6 cells/mL. For activation with STING ligand, 2′3′cGAMP (MW 718.38, obtained from Invivogen), was prepared in Optimem media.
The following solutions were prepared for each 1×384 plate: • Solution A: 2 mL Optimem with one of the following stimuli: • 60 μL of 10 mM 2′3′cGAMP->150 μM stock • Solution B: 2 mL Optimem with 60 μL Lipofectamine 2000->Incubate 5 min at RT
2 mL of solution A and 2 ml Solution B was mixed and incubated for 20 min at room temperature (RT). 20 uL of transfection solution (A+B) was added on top of the plated cells, with a final 2′3′cGAMP concentration of 15 μM. The plates were then centrifuged immediately at 340 g for 1 minute, after which they were incubated at 37° C., 5% CO2, >98% humidity for 24 h. Luciferase reporter activity was then measured. EC50 values were calculated by using standard methods known in the art.
Luciferase reporter assay: 10 μL of supernatant from the assay was transferred to white 384-plate with flat bottom and squared wells. One pouch of QUANTI-Luc™ Plus was dissolved in 25 mL of water. 100 μL of QLC Stabilizer per 25 mL of QUANTI-Luc™ Plus solution was added. 50 μL of QUANTI-Luc™ Plus/QLC solution per well was then added. Luminescence was measured on a Platereader (e.g., Spectramax I3X (Molecular Devices GF3637001)).
Luciferase reporter activity was then measured. EC50 values were calculated by using standard methods known in the art.

T1 sequence (Q86WV6 whole entry R71H/G230A/H232R/R293Q): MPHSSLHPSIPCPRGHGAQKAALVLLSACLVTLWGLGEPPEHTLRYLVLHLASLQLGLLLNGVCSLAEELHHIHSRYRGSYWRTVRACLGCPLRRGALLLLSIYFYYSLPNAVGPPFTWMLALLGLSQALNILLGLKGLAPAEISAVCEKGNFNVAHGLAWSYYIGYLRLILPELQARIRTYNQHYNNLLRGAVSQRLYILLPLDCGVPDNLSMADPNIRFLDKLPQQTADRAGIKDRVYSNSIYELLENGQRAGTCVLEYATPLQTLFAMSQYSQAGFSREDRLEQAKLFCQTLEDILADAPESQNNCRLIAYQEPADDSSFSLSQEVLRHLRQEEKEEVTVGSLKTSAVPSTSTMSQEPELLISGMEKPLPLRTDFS

Row | Compound | EC50 (class symbols) | EC50 (numeric bounds)
1 | O=C(NCC1(c2cccc(Cl)c2)CC1)C(=O)Nc1c[nH]c2ccncc12 [Compound 129] | 5 to 100 µM | –
2 | CC(CNC(=O)C(=O)Nc1c[nH]c2cccnc12)Oc1ccc(C(F)(F)F)cc1 (stereo not shown) [Compound 137, N1-(1H-pyrrolo[3,2-b]pyridin-3-yl)-N2-(2-(4-(trifluoromethyl)phenoxy)propyl)oxalamide] | 5 to 100 µM | –
3 | COc1ccc(CNC(=O)C(=O)Nc2c[nH]c3cccnc23)cc1C(F)(F)F [Compound 144, N1-(4-methoxy-3-(trifluoromethyl)benzyl)-N2-(1H-pyrrolo[3,2-b]pyridin-3-yl)oxalamide] | 1 to 5 µM | –
4 | O=C(NCC1CC2C=CC1C2)C(=O)Nc1c[nH]c2cccnc12 (stereo not shown) [Compound 111, N^1-(bicyclo[2.2.1]hept-5-en-2-ylmethyl)-N^2-(1H-pyrrolo[3,2-b]pyridin-3-yl)oxalamide] | 5 to 100 µM | –
5 | O=C(Nc1cnc2c(c1)CCCC2)C(=O)Nc1c[nH]c2cccnc12 [Compound 108, N^1-(1H-pyrrolo[3,2-b]pyridin-3-yl)-N^2-(5,6,7,8-tetrahydro-quinolin-3-yl)oxalamide] | – | > 100 µM
6 | O=C(NCc1ccc(C(F)(F)F)c(Cl)c1)C(=O)Nc1c[nH]c2ncc(F)c(F)c12 [Compound 131] | 5 to 100 µM | –
7 | O=C(Nc1ccc(C(F)(F)F)cc1)C(=O)Nc1c[nH]c2ncc(F)cc12 [Compound 125] | 1 to 5 µM | –
8 | Cc1ccc(CNC(=O)C(=O)Nc2c[nH]c3cccnc23)cc1C(F)(F)F [Compound 109, N^1-(4-methyl-3-(trifluoromethyl)benzyl)-N^2-(1H-pyrrolo[3,2-b]pyridin-3-yl)oxalamide] | 0.2 to 1 µM | –
9 | CC(NC(=O)C(=O)Nc1c[nH]c2cccnc12)c1ccc(C(F)(F)F)cc1 (stereo not shown) [Compound 143, N1-(1H pyrrolo[3,2-b]pyridin-3-yl)-N2-(1-(4-(trifluoromethyl)phenyl)ethyl)oxalamide] | 1 to 5 µM | –
10 | O=C(NCCOc1ccc(C(F)(F)F)cc1)C(=O)Nc1c[nH]c2cccnc12 [Compound 133, N1-(1H-pyrrolo[3,2-b]pyridin-3-yl)-N2-(2-(4-(trifluoromethyl)phenoxy)ethyl)oxalamide] | – | > 30 µM
11 | O=C(NCc1ccc(-c2ccccc2C(F)(F)F)cc1)C(=O)Nc1c[nH]c2ccncc12 [Compound 120, N^1-(1H-pyrrolo[3,2-c]pyridin-3-yl)-N^2-((2′-(trifluoro-methyl)-[1,1′-biphenyl]-4-yl)methyl)oxalamide] | 0.2 to 1 µM | –
12 | O=C(NCc1cccc(N2CCCCC2)c1)C(=O)Nc1c[nH]c2cccnc12 [Compound 141, N1-(3-(piperidin-1-yl)benzyl)-N2-(1H-pyrrolo[3,2-b]pyridin-3-yl)oxalamide] | – | > 30 µM
13 | O=C(Nc1c[nH]c2ncc(F)cc12)C(=O)NC1CCC2(CCCCC2)CC1 [Compound 103, N^1-(5-fluoro-1H-pyrrolo[2,3-b]pyridin-3-yl)-N^2-(spiro[5.5]undecan-3-yl)oxalamide] | 0.2 to 1 µM | –
14 | Cc1cc(NC(=O)C(=O)Nc2c[nH]c3ncc(F)cc23)cc(C(F)(F)F)c1 [Compound 101, N^1-(5-fluoro-1H-pyrrolo[2,3-b]pyridin-3-yl)-N^2-(3-methyl-5-(trifluoromethyl)phenyl)oxalamide] | 0.2 to 1 µM | –
15 | O=C(NCc1ccc(Cl)cc1C(F)(F)F)C(=O)Nc1c[nH]c2cccnc12 [Compound 140, N1-(4-chloro-2-(trifluoromethyl)benzyl)-N2-(1H-pyrrolo[3,2-b]pyridin-3-yl)oxalamide] | 1 to 5 µM | –
16 | Cc1ccc(CNC(=O)C(=O)Nc2c[nH]c3ccc(Br)nc23)cc1C(F)(F)F [Compound 128] | 0.2 to 1 µM | –
17 | O=C(Nc1cccc(C(F)(F)F)c1)C(=O)Nc1c[nH]c2ccncc12 [Compound 114, N^1-(1H-pyrrolo[3,2-c]pyridin-3-yl)-N^2-(3-(trifluoromethyl)phenyl)oxalamide] | 1 to 5 µM | –
18 | O=C(Nc1c[nH]c2cccnc12)C(=O)NC(c1ccc(F)cc1)C1CC1 (stereo not shown) [Compound 135, N1-(cyclopropyl(4-fluorophenyl)methyl)-N2-(1H-pyrrolo[3,2-b]pyridin-3-yl)oxalamide] | – | > 30 µM

The next lines start with the values.

Row | EC50 (class symbols) | EC50 (numeric bounds) | Compound
19 | 1 to 5 µM | – | Cc1c(NC(=O)C(=O)Nc2c[nH]c3ccncc23)cccc1C(F)(F)F [Compound 175, N1-(2-methyl-3-(trifluoromethyl)-phenyl)-N2-(1H-pyrrolo[3,2-c]pyridin-3-yl)oxalamide]
20 | 5 to 100 µM | – | O=C(Nc1c[nH]c2ncc(F)cc12)C(=O)NC1CCC2(CCCC2)C1 (stereo not shown) [Compound 203]
21 | 1 to 5 µM | – | CC(CNC(=O)C(=O)Nc1c[nH]c2ccncc12)Oc1ccc(C(F)(F)F)cc1 (stereo not shown) [Compound 164, N1-(1H-pyrrolo[3,2-c]pyridin-3-yl)-N2-(2-(4-(trifluoromethyl)-phenoxy)propyl)-oxalamide]
22 | 0.2 to 1 µM | – | Cc1ccc2[nH]cc(NC(=O)C(=O)Nc3ccc(C4CCCCC4)cn3)c2n1 [Compound 207]
23 | – | > 30 µM | COc1ccc(CNC(=O)C(=O)Nc2c[nH]c3ccncc23)cc1Cl [Compound 168, N1-(3-chloro-4-methoxybenzyl)-N2-(1H-pyrrolo[3,2-c]pyridin-3-yl)oxalamide]
24 | 1 to 5 µM | – | O=C(NCc1cccc(C(F)(F)F)c1F)C(=O)Nc1c[nH]c2ccncc12 [Compound 170, N1-(2-fluoro-3-(trifluoromethyl)-benzyl)-N2-(1H-pyrrolo[3,2-c]pyridin-3-yl)oxalamide]
25 | – | > 30 µM | O=C(NCCC1(C(F)(F)F)CC1)C(=O)Nc1c[nH]c2ccncc12 [Compound 161, N1-(1H-pyrrolo[3,2-c]pyridin-3-yl)-N2-(2-(1-(trifluoromethyl)-cyclopropyl)-ethyl)oxalamide]
26 | 5 to 100 µM | – | O=C(NCc1ccccc1C(F)(F)F)C(=O)Nc1c[nH]c2ccncc12 [Compound 172, N1-(1H-pyrrolo[3,2-c]pyridin-3-yl)-N2-(2-(trifluoromethyl)-benzyl)-oxalamide]
27 | – | > 30 µM | O=C(Nc1ccc(OCC(F)(F)F)nc1)C(=O)Nc1c[nH]c2cccnc12 [Compound 150, N1-(1H-pyrrolo[3,2-b]pyridin-3-yl)-N2-(6-(2,2,2-trifluoroethoxy)pyridin-3-yl)oxalamide]
28 | 1 to 5 µM | – | C[C@@H](NC(=O)C(=O)Nc1c[nH]c2c(F)cncc12)c1ccc(C(F)(F)F)cc1 [Compound 205]
29 | 1 to 5 µM | – | O=C(NCCOc1ccc(C(F)(F)F)cc1)C(=O)Nc1c[nH]c2ccncc12 [Compound 159, N1-(1H-pyrrolo[3,2-c]pyridin-3-yl)-N2-(2-(4-(trifluoromethyl)-phenoxy)ethyl)oxalamide]
30 | – | > 30 µM | O=C(NCC1CCCC(F)(F)C1)C(=O)Nc1c[nH]c2ccncc12 (stereo not shown) [Compound 146, N1-((3,3-difluorocyclohexyl)-methyl)-N2-(1H-pyrrolo[3,2-c]pyridin-3-yl)oxalamide]
31 | 5 to 100 µM | – | O=C(Nc1c[nH]c2ncc(F)cc12)C(=O)N[C@@H]1CCC2(CCCC2)C1 (single isomer, unassigned) [Compound 200]
32 | – | > 30 µM | O=C(NCC(F)(F)c1ccccc1)C(=O)Nc1c[nH]c2ccncc12 [Compound 163, N1-(2,2-difluoro-2-phenylethyl)-N2-(1H-pyrrolo[3,2-c]pyridin-3-yl)oxalamide]
33 | 0.2 to 1 µM | – | O=C(NCc1ccc(Cl)cc1C(F)(F)F)C(=O)Nc1c[nH]c2ccncc12 [Compound 167, N1-(4-chloro-2-(trifluoromethyl)-benzyl)-N2-(1H-pyrrolo[3,2-c]pyridin-3-yl)oxalamide]
34 | 1 to 5 µM | – | Cc1cc(CNC(=O)C(=O)Nc2c[nH]c3cnccc23)ccc1C(F)(F)F [Compound 213]
35 | 1 to 5 µM | – | Cc1cc(F)c(Cl)cc1NC(=O)C(=O)Nc1c[nH]c2ccncc12 [Compound 162, N1-(5-chloro-4-fluoro-2-methylphenyl)-N2-(1H-pyrrolo[3,2-c]pyridin-3-yl)oxalamide]
36 | – | > 30 µM | O=C(NCC1CCC(F)(F)CC1)C(=O)Nc1c[nH]c2ccncc12 [Compound 160, N1-((4,4-difluorocyclohexyl)-methyl)-N2-(1H-pyrrolo[3,2-c]pyridin-3-yl)oxalamide]
37 | 5 to 100 µM | – | O=C(Nc1c[nH]c2ncc(F)cc12)C(=O)N[C@@H]1CCC2(CCCCC2)C1 (single isomer, unassigned) [Compound 202]
38 | 1 to 5 µM | – | O=C(NCc1cccc2c1OC(F)(F)O2)C(=O)Nc1c[nH]c2ccncc12 [Compound 158, N1-((2,2-difluorobenzo-[d][1,3]dioxol-4-yl)methyl)-N2-(1H-pyrrolo[3,2-c]pyridin-3-yl)oxalamide]
39 | 0.2 to 1 µM | – | Cc1ccc(CNC(=O)C(=O)Nc2c[nH]c3cc(F)cnc23)cc1C(F)(F)F [Compound 174]
40 | 1 to 5 µM | – | CC(C)n1cc(-c2ccc3[nH]cc(NC(=O)C(=O)Nc4ccc(C5CCCCC5)cn4)c3n2)cn1 [Compound 206, N-(5-cyclohexylpyridin-2-yl)-N′-(5-(1-isopropyl-1H-pyrazol-4-yl)-1H-pyrrolo[3,2-b]pyridin-3-yl)oxalamide]
